Columns and labels:
Digitaria sanguinalis [1] = test: Comparison experiment (post-emergence) against racemate / S configuration; type: in vivo; conditions: 30 g/ha; 3-4 weeks after sowing, 4-5 leaf-stage of weed, 25DAA
Rice(Longyang 16) = test: Comparison experiment (post-emergence), crop safety on direct seeding rice; type: in vivo
Text: (§1) The above growth control rates are fresh weight control rates.
(§2) Experiment on weeding effect in post-emergence stage: monocotyledonous and dicotyledonous weed seeds (Descurainia sophia, Capsella bursa-pastoris, Galium aparine, Stellaria media, Lithospermum arvense, Rorippa indica, Alopecurus aequalis, Beckmannia syzigachne, Sclerochloa dura, Phleum paniculatum, Bromus japonicus, Aegilops tauschii, Phalaris arundinacea, Amaranthus retroflexus, Chenopodiaceae, Commelina communis, Sonchus arvensis, convolvulus arvensis, Cirsium setosum, Solanum nigrum, Acalypha australis, Digitaria sanguinalis, Echinochloa crusgalli, Setaria viridis, Setaria glauca, Leptochloa chinensis, Monochoria vaginalis, Sagittaria trifolia, Scirpus juncoides, Cyperus rotundus, Cyperus iria, Cyperus difformis, Fimbristylis, Portulaca oleracea, Xanthium sibiricum, Pharbitis nil) and major crop seeds (wheat, corn, rice, soybean, cotton, oilseed rape, millet, sorghum, potato, sesame, ricinus) were placed in plastic pots filled with soil, then covered with 0.5-2 cm of soil, allowed to grow in a good greenhouse environment. After 2 weeks of sowing, the test plants were treated in the 2 leaf stage. The tested compounds of the present invention were respectively dissolved in acetone, then added with Tween 80 and 1.5 liter/ha of emulsifiable concentrate of methyl oleate as synergist, diluted with a certain amount of water to obtain a solution with a certain concentration, and sprayed with a spray tower onto the plants. After the application, the plants were cultured for 15 days in the greenhouse, and then the experimental results of the weeding were counted. The doses of the used compounds were 500, 250, 125, 60, 30, 15 g/ha, and the averages were obtained by repeating for three times.
(§3) If there is no clear marker, the post-seedling test conditions are the same as above, and the experimental results are shown in Tables 4-7.
Longyang 16 is an important cultivated variety representative of long-grain fragrant rice in northeast China. Long-grain fragrant rice is sensitive to herbicides and prone to drug damage, especially HPPD herbicides such as mesotrione and benzobicylon. […] It was not consistent with the well-known structure-activity relationship that aryloxyphenoxypropionic acid herbicides and phenoxypropionic acid herbicides in effective form have high activity to weeds and heavy damage to crops, and in ineffective form have almost no activity.

Leptochloa chinensis [2] = test: Comparison experiment (post-emergence) against racemate / S configuration; type: in vivo
Text: as §1
as §2, with “After 2 weeks of sowing, the test plants were treated in the 2 leaf stage.” left out, “After the application, the plants were cultured for 15 days in the greenhouse, and then the experimental results of the weeding were counted. The doses of the used compounds were 500, 250, 125, 60, 30, 15 g/ha, and the averages were obtained by repeating for three times.” left out
as §3

Green Setaria viridis = test: as above; type: in vivo; conditions: 3-4 weeks after sowing, 4-5 leaf-stage of weed
Text: as §1
as §2, with “After 2 weeks of sowing, the test plants were treated in the 2 leaf stage.” left out, “After the application, the plants were cultured for 15 days in the greenhouse, and then the experimental results of the weeding were counted. The doses of the used compounds were 500, 250, 125, 60, 30, 15 g/ha, and the averages were obtained by repeating for three times.” left out
as §3

Abutilon theophrasti [3] = test: as above; type: in vivo; conditions: 30 g/ha; 3-4 weeks after sowing, 4-5 leaf-stage of weed, 25DAA
Text: as §1
as §2, with “After 2 weeks of sowing, the test plants were treated in the 2 leaf stage.” left out, “After the application, the plants were cultured for 15 days in the greenhouse, and then the experimental results of the weeding were counted. The doses of the used compounds were 500, 250, 125, 60, 30, 15 g/ha, and the averages were obtained by repeating for three times.” left out
as §3

Rice = test: Transplanted rice safety evaluation; type: in vivo, rice (japonica rice/Indica rice); conditions: 60 g/ha; transplanted 3 leaf stage rice, 21 days after treatment
Text: (§4) The activity level criteria for harmful plant damage (i.e., growth control rate) are as follows: • Level 5: growth control rate is above 85%; • Level 4: growth control rate is greater than or equal to 60% and less than 85%; • Level 3: growth control rate is greater than or equal to 40% and less than 60%; • Level 2: growth control rate is greater than or equal to 20% and less than 40%; • Level 1: growth control rate is greater than or equal to 5% and less than 20%; • Level 0: growth control rate is less than 5%.
In addition, the rice field soil that loaded into the 1/1,000,000 ha pot was leveled to keep water storage at 3-4 cm depth. The 3 leaf stage rice (japonica rice/Indica rice) was transplanted at 3 cm of transplanting depth the next day. The compound of the present invention was treated by the same way after 5 days of transplantation.
(§5) The fertility condition of Echinochloa crusgali, Scirpus juncoides, Bidens tripartita, Leptochloa chinensis, Sagittaria trifolia and Monochoria vaginalis 14 days after the treatment of the compound of the invention and the fertility condition of rice 21 days after the treatment of the compound of the invention respectively with the naked eye. Evaluate the weed control effect with 0-5 activity standard level. Many compounds show excellent activity and selectivity.

Amaranthus retroflexus = test: Weeding effect in post-emergence stage; type: in vivo; conditions: 250 g/ha; 2 leaf stage; 15 days after application; fresh weight control rate
In short: (§6)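 Greenhouse pot-grown weeds were sprayed at the 2-leaf stage, 2 weeks after sowing, with compound in acetone/Tween 80 plus 1.5 L/ha methyl oleate EC, at 500, 250, 125, 60, 30 or 15 g/ha. Fresh-weight growth control was scored 15 days later on a 0–5 scale, mean of three repeats.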

Echinochloa crusgali [4] = test: Weeding effect in post-emergence stage; type: in vivo; conditions: 250 g/ha; 2 leaf stage; 15 days after application; fresh weight control rate
In short: as §6

Setaria viridis = test: Weeding effect in post-emergence stage; type: in vivo; conditions: 250 g/ha; 2 leaf stage; 15 days after application; fresh weight control rate
In short: as §6

Digitaria sanguinalis [5] = test: Weeding effect in post-emergence stage; type: in vivo; conditions: 250 g/ha; 2 leaf stage; 15 days after application; fresh weight control rate
In short: as §6

Abutilon theophrasti [6] = test: Weeding effect in post-emergence stage; type: in vivo; conditions: 250 g/ha; 2 leaf stage; 15 days after application; fresh weight control rate
In short: as §6

Sagittaria trifolia = test: Weed control effect evaluation in rice field; type: in vivo; conditions: 60 g/ha; rice field pot, 14 days after treatment; ALS-inhibitor resistant weed from Heilongjiang
Text: as §4
(§7) Rice field soil was loaded into a 1/1,000,000 ha pot. The seeds of Echinochloa crusgali, Scirpus juncoides, Bidens tripartita, Sagittaria trifolia, Monochoria vaginalis and Leptochloa chinensis were sowed and gently covered with soil, then left to stand still in greenhouse in the state of 0.5-1 cm of water storage. The tuber of Sagittaria trifolia was planted in the next day or 2 days later. It was kept at 3-4 cm of water storage thereafter. The weeds were treated by dripping the WP or SC water diluents prepared according to the common preparation method of the compounds of the present invention with pipette homogeneously to achieve specified effective amount when Echinochloa crusgali, Scirpus juncoides, Bidens tripartita, Monochoria vaginalis and Leptochloa chinensis reached 0.5 leaf stage and Sagittaria trifolia reached the time point of primary leaf stage.
as §5

Monochoria vaginalis = test: Weed control effect evaluation in rice field; type: in vivo; conditions: 60 g/ha; rice field pot, 14 days after treatment; ALS-inhibitor resistant weed from Heilongjiang
Text: as §4, §7, §5

Echinochloa crusgali [7] = test: Weed control effect evaluation in rice field; type: in vivo; conditions: 60 g/ha; rice field pot, 14 days after treatment; ALS-inhibitor resistant weed from Heilongjiang
Text: as §4, §7, §5

Leptochloa chinensis [8] = test: Weed control effect evaluation in rice field; type: in vivo; conditions: 60 g/ha; rice field pot, 14 days after treatment
Text: as §4, §7, §5

Structure (SMILES): CCC[S@@+]([O-])c1c(C(F)(F)F)ccc(C(=O)Nc2nnc(C)o2)c1F [Compound 3]
- Results of comparison experiment, Digitaria sanguinalis (30 g/ha) (Digitaria sanguinalis [1]): 100%
- Results of comparison experiment, Rice(Longyang 16) (250 g/ha) (Rice(Longyang 16); 250 g/ha, 1.5-2 leaf-stage of direct seeding rice variety Longyang 16, 25 DAA): 0%
- Results of comparison experiment, Rice(Longyang 16) (500 g/ha) (Rice(Longyang 16); 500 g/ha, 1.5-2 leaf-stage of direct seeding rice variety Longyang 16, 25 DAA): 0%
- safety to rice (Longyang 16), in words (Rice(Longyang 16); summary of Table 5): higher safety
- Results of comparison experiment, Leptochloa chinensis (60 g/ha) (Leptochloa chinensis [2]; 60 g/ha, 3-4 weeks after sowing, 4-5 leaf-stage of weed, 25DAA): 85%
- Results of comparison experiment, Leptochloa chinensis (125 g/ha) (Leptochloa chinensis [2]; 125 g/ha, 3-4 weeks after sowing, 4-5 leaf-stage of weed, 25 DAA (Table 5)): 100%
- activity against key weeds such as Leptochloa chinensis, in words (Leptochloa chinensis [2]; summary of Table 5): better activity
- Results of comparison experiment, Green Setaria viridis (30 g/ha) (Green Setaria viridis; 30 g/ha, 25 DAA (Table 5)): 75%
- Results of comparison experiment, Green Setaria viridis (60 g/ha) (Green Setaria viridis; 60 g/ha, 25DAA): 100%
- Results of comparison experiment, Abutilon theophrasti (30 g/ha) (Abutilon theophrasti [3]): 100%
- Herbicidal effects of compounds, Rice, 0-5 activity standard level (Rice): 0 (Level 0: growth control rate is less than 5%)
- weeding effect in post-emergence stage, activity level (growth control rate), Amaranthus retroflexus (Amaranthus retroflexus): 5 (Level 5: growth control rate is above 85%)
- weeding effect in post-emergence stage, activity level (growth control rate), Echinochloa crusgali (Echinochloa crusgali [4]): 5 (Level 5: growth control rate is above 85%)
- weeding effect in post-emergence stage, activity level (growth control rate), Setaria viridis (Setaria viridis): 5 (Level 5: growth control rate is above 85%)
- weeding effect in post-emergence stage, activity level (growth control rate), Digitaria sanguinalis (Digitaria sanguinalis [5]): 5 (Level 5: growth control rate is above 85%)
- weeding effect in post-emergence stage, activity level (growth control rate), Abutilon theophrasti (Abutilon theophrasti [6]): 5 (Level 5: growth control rate is above 85%)
- Herbicidal effects of compounds, Sagittaria trifolia, 0-5 activity standard level (Sagittaria trifolia): 5 (Level 5: growth control rate is above 85%)
- Herbicidal effects of compounds, Monochoria vaginalis, 0-5 activity standard level (Monochoria vaginalis): 5 (Level 5: growth control rate is above 85%)
- Herbicidal effects of compounds, Echinochloa crusgali, 0-5 activity standard level (Echinochloa crusgali [7]): 5 (Level 5: growth control rate is above 85%)
- Herbicidal effects of compounds, Leptochloa chinensis, 0-5 activity standard level (Leptochloa chinensis [8]): 5 (Level 5: growth control rate is above 85%)

— US12643871B2, “Aryl formamide compound containing chiral sulfur oxide or salt thereof, preparation method, herbicidal composition and use thereof” (Qingdao Kingagroot Chemical Compound Co., Ltd., priority 2019, dated 2026)
